Reference: patent US10981932B2, “Macrocyclic indole derivatives” (Bayer Aktiengesellschaft, priority 2016, dated 2021)
Structures can show the parent of a compound that is named as a salt. Where two headings read alike, the source gives them in different places.

Assays:
[1] = tested on: SUDHL10; assay: Anti-proliferative effect (CellTiter-Glo, 72 h), SUDHL10; format: cell-based; settings: SUDHL10 cells, antiproliferation, 72 h incubation, median, read-out: Antiproli SUDHL10 [M] (median)
Summary of the method: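 72 h compound treatment, 37 °C humidified; CellTiter-Glo added, 10 min incubation, luminescence read; day 0 plate read in parallel for baseline.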

[2] = tested on: SUDHL10; assay: Induction of cytotoxicity (CellTiter-Glo, 5 h), SUDHL10
[3] = target: T1, BCL-XL (Homo sapiens, UniProt Q07817); assay: Protein-protein interaction assay BCL-XL/Bad BH3 peptide (BCL-XL assay), TR-FRET; format: binding; settings: His-BCL-XL / Bad BH3-derived peptide
T1 construct: BCL-XL (amino acids 1-212, C-terminal fused to a hexahistidine (6×His) tag); purchased BPS Bioscience (San Diego, Calif., USA); host or cells: E. coli
T1 sequence (Q07817 1-212): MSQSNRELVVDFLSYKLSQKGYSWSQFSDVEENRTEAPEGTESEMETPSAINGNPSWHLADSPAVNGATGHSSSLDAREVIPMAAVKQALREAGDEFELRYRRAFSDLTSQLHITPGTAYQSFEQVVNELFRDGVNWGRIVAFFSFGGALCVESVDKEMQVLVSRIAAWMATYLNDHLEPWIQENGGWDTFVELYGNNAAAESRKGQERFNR
Experimental: Protein-Protein Interaction Assay: BCL-XL/Bad BH3 Peptide (BCL-XL Assay)
The dose-dependent inhibition by the compounds described in this invention of the interaction between […] and the BH3 domain of Bad (both human) was determined using a steady state binding competition assay with time-resolved fluorescence energy transfer (TR-FRET) readout. For that purpose BCL-2 (amino acids 1-211, C-terminal fused to a hexahistidine (6×His) tag (SEQ ID NO: 3) and a synthetic Bad BH3-derived peptide of sequence Biotin-PEG2-PEG2-NLWAAQRYGRELRR-NIe-SDEFVDSFKK-amide (SEQ ID NO: 2) served as protein receptor and tracer ligand respectively. The recombinant BCL-2 protein (expressed in E. coli) was purchased from BPS Bioscience (San Diego, Calif., USA). The Bad BH3-derived peptide can be obtained from e.g. Biosyntan (Berlin, Germany).
In the assay 11 different concentrations of each compound (0.1 nM, 0.33 nM, 1.1 nM, 3.8 nM, 13 nM, 44 nM, 0.15 μM, 0.51 μM, 1.7 μM, 5.9 μM and 20 μM) were typically measured as duplicates in the same microtiter plate. For that, 100-fold concentrated DMSO solutions were prepared by serial dilutions (1:3.4) of a 2 mM stock solution in a clear, 384-well microtiter plate (Greiner Bio-One, Frickenhausen, Germany). From there, 50 nl were transferred in a dark test plate (Greiner Bio-One. Frickenhausen, Germany). The assay was initiated by addition of 2 μl of a 2,5-fold concentrated Hs-BCL-XL solution (usually for a 1 nM end concentration in 5 μl reaction volume) in aqueous assay buffer [50 mM Tris/HCl pH 7, 100 mM sodium chloride (NaCl), 50 mM potassium fluoride (KF), 0.005% Tween-20, 2 mM DTT, 0.1% bovine gamma globulin (BGG)] to the compounds in the assay plate. This was followed by a 10-minute incubation step at 22° C. for pre-equilibration of the putative complex between His-BCL-XL and the compounds.
The mixture was incubated in the dark for one hour at 22° C. and then overnight at 4° C. The formation of BCL-XL/Bad complexes was determined by measuring the resonance energy transfer of the anti-His- Eu-cryptate antibody to the streptavidin-XL665 present in the reaction. For that purpose, the fluorescence emission at 620 nm and 665 nm after excitation at 330-350 nm was measured in a TR-FRET measuring instrument, for instance a Rubystar or a Pherastar (both from BMG Lab Technologies, Offenburg, Germany) or a Viewlux (Perkin-Elmer). The ratio of the emission at 665 nm and at 622 nm was used as indicator of the amount of BCL-XL/Bad complexes present.
The resulting data (ratio) were normalized, taking 0% inhibition as the mean value of control measurements (usually 32 data points) where all reagents were included. In this case 50 nl DMSO were used instead of compounds. A 100% inhibition corresponded to the mean value of control measurements (usually 32 data points) where all reagents except BCL-XL were included. IC50 values were determined by regression analysis based on a 4 parameter equation (minimum, maximum, IC50, Hill; Y=Max+(Min−Max)/(1+(X/IC50)^Hill) using the Screener Software (Genedata).

[4] = tested on: SUDHL5; assay: Induction of cytotoxicity (CellTiter-Glo, 5 h), SUDHL5
[5] = tested on: SUDHL5; assay: Induction of caspase-3/7 activity (Caspase-Glo 3/7), SUDHL5; format: cell-based; settings: caspase-3/7 induction, SUDHL5 cells, 3 h treatment, median
Summary of the method: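 DLBCL lines SUDHL5 and SUDHL10 treated with compounds for 3 h at 37 °C; caspase-3/7 activity read by Caspase-Glo 3/7 luminescence. Medium-only background subtracted; EC50 fitted with bottom fixed at 1 and top fixed at the reference compound's maximal induction.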

[6] = Homo sapiens, SU-DHL10, 5 h, read-out: Cytotox SUDHL10 [M] (median), SUDHL10 cells, cytotoxicity induction, CellTiter-Glo, 5 h incubation, median
[7] = Homo sapiens, SU-DHL-5, 5 h, read-out: Cytotox SUDHL5 [M] (median), SUDHL5 cells, cytotoxicity induction, CellTiter-Glo, 5 h incubation, median
[8] = read-out: Cytotox SUDHL10 [M] (median), SUDHL10 cells, cytotoxicity induction, CellTiter-Glo, 5 h incubation, median
[9] = read-out: Cytotox SUDHL5 [M] (median), SUDHL5 cells, cytotoxicity induction, CellTiter-Glo, 5 h incubation, median

Structure (SMILES)	IC50 ([1]; Homo sapiens, SU-DHL10, 72 h) [M]	IC50 [2, 6] [M]	IC50 [3] [µM]	IC50 [4, 7] [M]	EC50 ([5]; Homo sapiens, SU-DHL-5, 3 h) [µM]	IC50 [2, 8] [M]	IC50 [4, 9] [M]	EC50 [5] [µM]	IC50 [1] [M]
Cc1c2c(nn1C)COCCCCn1c(C(=O)O)c(CCCOc3cccc4ccccc34)c3cccc-2c31 (racemic) [Example 1-36, (rac)-2,3-dimethyl-7-[3-(naphthalen-1-yloxy)propyl]-2,10,11,12,13,15-hexahydropyrazolo[4′,3′:9,10][1,6]oxazacycloundecino[8,7,6-hi]indole-8-carboxylic Acid]	6.09e-06	1.4e-05	> 20	3.69e-06	3.94				
Cc1nn(C)c2c1-c1cccc3c(CCCOc4cccc5ccccc45)c(C(=O)O)n(c13)CCCCOCC2 (racemic) [Example 017, (rac)-1,3-dimethyl-7-[3-(1-naphthyloxy)propyl]-10,11,12,13,15,16-hexahydro-1H-pyrazolo[4′,3′:9,10][1,6]oxazacyclododecino[8,7,6-hi]indole-8-carboxylic Acid]	2.17e-05	> 3.3e-05	> 20	1.36e-05	14.7				
Cc1ccc2c(CCCOc3cccc4c3CCCC4)c(C(=O)O)n3c2c1-c1c(C)nn(C)c1COCCCC3 (racemic) [Example 039, (rac)-1,3,4-trimethyl-7-[3-(5,6,7,8-tetrahydronaphthalen-1-yloxy)propyl]-110,11,12,13,15-hexahydropyrazolo[4′3′:9,10][1,6]oxazacycloundecino[8,7,6-hi]indole-8-carboxylic Acid]	1.3e-05	2.97e-05	> 20	8.59e-06	7.47				
CC(C)c1c2c(nn1C)CN(C)CCCn1c(C(=O)O)c(CCCOc3cccc4ccccc34)c3cccc-2c31 (racemic) [Example 113, (rac)-7,10-dimethyl-1-[3-(naphthalen-1-yloxy)propyl]-11-(propan-2-yl)-4,5,6,7,8,10-hexahydropyrazolo[3′,4′:7,8][1,5]diazecino[9,10,1-hi]indole-2-carboxylic Acid]	6.99e-06	7.9e-06	> 20	6.84e-06					
CCc1c2c(nn1C)CN(C)CCCn1c(C(=O)O)c(CCCOc3cccc4ccccc34)c3cccc-2c31 (racemic) [Example 141, (rac)-11-ethyl-7,10-dimethyl-1-[3-(1-naphthyloxy)propyl]-4,5,6,7,8,10-hexahydropyrazolo[3′,4′:7,8][1,5]diazecino[9,10,1-hi]indole-2-carboxylic Acid]	1e-05	7.87e-06	> 20	3.66e-06	4.08				
CCc1c2c(nn1C)CN(C)CCCn1c(C(=O)O)c(CCCOc3cccc4ccccc34)c3ccc(C)c-2c31 (racemic) [Example 144, (rac)-11-ethyl-7,10,12-trimethyl-1-[3-(1-naphthyloxy)propyl]-4,5,6,7,8,10-hexahydropyrazolo[3′,4′:7,8][1,5]diazecino[9,10,1-hi]indole-2-carboxylic Acid]	5.89e-06	5.02e-06	> 20	2.55e-06	2.85				
CCc1c2c(nn1C)COCCCCn1c(C(=O)O)c(CCCOc3cccc4ccccc34)c3ccc(C)c-2c31 (racemic) [Example 153, (rac)-3-Ethyl-2,4-dimethyl-7-[3-(1-naphthyloxy)propyl]-2,10,11,12,13,15-hexahydropyrazolo[4′,3′:9,10][1,6]oxazacycloundecino[8,7,6-hi]indole-8-carboxylic Acid]	4.09e-06	5.1e-06	> 20	1.65e-06	1.7				
CC(C)OCc1nn(C)c2c1-c1cccc3c(CCCOc4cccc5ccccc45)c(C(=O)O)n(c13)CCCCN(C)C2 (single isomer, unassigned) [Example 1-74, 1,14-dimethyl-7-[3-(naphthalen-1-yloxy)propyl]-3-[(propan-2-yloxy)methyl]-10,11,12,13,14,15-hexahydro-1H-pyrazolo[3′,4′:8,9][1,6]diazacycloundecino[10,11,1-hi]indole-8-carboxylic Acid]	1.17e-05		> 20			1.42e-05	9.82e-06	8.87	
CN1CCCn2c(C(=O)O)c(CCCOc3cccc4ccccc34)c3cccc(c32)-c2c(COc3ccc(N4CCN(S(=O)(=O)N(C)C)CC4)cc3)nn(C)c2C1 (single isomer, unassigned; enantiomer 1) [Example 1-15, (+)-11-({4-[4-(dimethylsulfamoyl)piperazin-1-yl]phenoxy}methyl)-7,9-dimethyl-1-[3-(naphthalen-1-yloxy)propyl]-4,5,6,7,8,9-hexahydropyrazolo[3′,4′:7,8][1,5]diazecino[9,10,1-hi]indole-2-carboxylic Acid (Enantiomer 1)]			> 20			1.94e-06	1.38e-06	1.17	1.56e-06
Cc1nn(C)c2c1-c1cccc3c(CCCOc4cccc5cc(Cl)ccc45)c(C(=O)O)n(c13)CCCCOC2 (single isomer, unassigned; enantiomer 1) [Example 041, 7-{3-[(6-chloronaphthalen-1-yl)oxy]propyl}-1,3-dimethyl-1,10,11,12,13,15-hexahydropyrazolo[4′,3′:9,10][1,6]oxazacycloundecino[8,7,6-hi]indole-8-carboxylic acid-N-ethylethanamine Salt (Enantiomer 1)]			> 20			1.46e-05	1.02e-05	13.1	
COCc1nn(C)c2c1-c1cccc3c(CCCOc4cccc5ccccc45)c(C(=O)O)n(c13)CCCN(C)C2 (single isomer, unassigned; enantiomer 2) [Example 1-104, 11-(methoxymethyl)-7,9-dimethyl-1-[3-(1-naphthyloxy)propyl]-4,5,6,7,8,9-hexahydropyrazolo[3′,4′:7,8][1,5]diazecino[9,10,1-hi]indole-2-carboxylic Acid (Enantiomer 2)]			> 20			1.78e-05	7.21e-06	4.96	
